pIC50: −log10 of the molar value. “Also recorded” adds a separate entry of the source. Like-named read-outs stand apart in the source and are kept apart here.
How the values were obtained:
[1] = test system: HCT116 colon cancer cells; assay: MTT assay with pan-caspase inhibitor zVAD pre-treatment; format: cell-based, human; details: 50 μM zVAD 1 hour before drug, MTT after 24 hours
Description: (A) FACS analysis of HCT116 cells after treatment for 2, 4, or 8 hours with vehicle, 30 μM 3-BP, 30 μM NEO218, or 1 μM staurosporine (STS). […] (B) Western blot analysis of apoptotic markers. In the top section, MDA-MB-231 cells were treated with 30 μM NEO218 or 1 μM STS for various time points. In the lower section, HCT116 cells were treated with the indicated concentrations of 3-BP, NEO218, or STS for 16 hours. In all cases cell lysates were prepared and analyzed for the well-established apoptotic markers cleaved PARP, cleaved (i.e., activated) caspase 7 (cl. C-7), and phosphorylated (i.e., active) H2AX. Actin was used as a loading control. (C) HCT116 cells were pretreated with 50 μM Z-VAD-FMK for one hour, followed by the addition of increasing concentrations of 3-BP or NEO218. Cell viability was determined by MTT assay 24 hours later. Data points are averages from n=3.
The capacity for NEO218 to induce apoptosis was further evaluated in a series of experiments using an MTT assay. The apoptosis-blocker zVAD (z-VAD-FMK), an agent that acts as a pan-caspase inhibitor, was used. HCT116 colon cancer cells were treated for 1 hour with or without 50 μM zVAD, followed by increasing concentrations of NEO218 or 3-BP. Twenty-four hours thereafter, cell viability was determined by MTT assay.

HCT116 cells = assay: MTT assay with or without supplemental pyruvate; format: cell-based, human; details: HCT116, MTT after 24 hours
Description: (§1) (A) HCT116 cells were treated with 40 μM 3-BP or NEO218 in the presence or absence of 1 mM NAC, 1 mM GSH, or 50 mM methyl-pyruvate (or sodium pyruvate, which produced similar outcomes). Cell viability was determined 24 hours later by MTT assay. (B) HCT116 cells were treated with 30 or 100 μM 3-BP or NEO218. After 30 minutes, cell lysates were prepared and analyzed for GAPDH activity. (C) Lysates from non-drug-treated MDA-MB-231 cells were mixed with 3-BP or NEO218 in the presence or absence of NAC or GSH at the concentrations mentioned in A. After 1 hour of incubation, GAPDH activity was determined. GAPDH activity in the absence of drug treatment was set at 100% (corresponding to 0.06 units/min×10^6 cells).
To test this hypothesis, HCT116 cells were treated with increasing concentrations of NEO218 and 3-BP (individually) in the presence or absence of 10 mM pyruvate. Viability of cells was determined 24 hours later by MTT cell viability assay.

MDA-MB-231 cells = assay: MTT short-term toxicity assay in MDA-MB-231 cells; format: cell-based, human
Description: (A) MTT assay was performed after 24 hours. […] (B) LDH assay was performed after […]. LDH release by untreated cells was set to 1. Relative fold increase is shown (n=3).
(A) MTT assay was performed after 24 hours. Viability of untreated cells was set at 100% (data points are averages of 2 experiments). (B) LDH assay was performed after 24 hours. LDH release by untreated cells was set to 1. Relative fold increase is shown (averages from 2 experiments). (C) Representative photos show typical colony formation after initial 48 hours of drug treatment. In all cases of combination treatment with 3-BP mixed with […] (3-BP+POH), the indicated concentrations refer to each individual drugs, i.e., 100 μM 3-BP+POH means that 100 μM 3-BP was combined with 100 μM POH.
Methylthiazoletetrazolium (MTT) assays were performed as described earlier.

tumor cells = assay: Cytotoxicity in the presence of necroptosis inhibitor necrostatin-1; format: cell-based; details: data not shown
Text: All our data are highly consistent and point to necrosis as the overwhelmingly dominant mechanism of cell death by both 3-BP and NEO218 in our cell systems, as supported by the following observations: (i) A pan-caspase inhibitor exerted no influence on the cytotoxic IC50 of 3-BP or NEO218 (FIG. 21C). (ii) Several established protein markers of apoptosis show very little, if any, response to drug treatment (FIG. 21B). (iii) Loss of structural integrity of the plasma membrane is a hallmark of necrosis and can be documented via cellular uptake of membrane-impermeant dyes (such as propidium iodide, PI) or cellular leakage of cytosolic enzymes (such as lactate dehydrogenase, LDH). […] The loss of plasma membrane integrity is consistent with cell death induced by the severe ATP depletion observed by us (FIG. 22) and reported by others, because maintenance of the cytoplasmic transmembrane electrochemical gradients is highly energy dependent, and their loss inevitably leads to cell swelling and membrane rupture (i.e., necrosis). (iv) Rapid cell death is another characteristic of necrotic cell death. We detected PI positivity and LDH release within the first 2 hours of drug exposure (see FIG. 21A for PI; time course not shown for LDH). […] Cells were treated with 3-BP or NEO218 in the presence of necrostatin-1 (Nec-1), a commonly used inhibitor of necroptosis.

GAPDH = GAPDH (Homo sapiens, UniProt P04406); assay: GAPDH activity assay after 30 minutes drug treatment of living cells; format: cell-based; parameters: endogenous in cells
Description: as §1
Enzymatic activity of GAPDH in vitro was measured with the Colorimetric GAPDH Assay kit (ScienCell Research Laboratories, Carlsbad, Calif.). This assay is based on the oxidization of β-NADH to β-NAD in the presence of 3-phosphoglyceric acid, ATP and GAPDH. GAPDH activity is determined by assaying the rate of NADH oxidation, which is proportional to the reduction in absorbance at 340 nm over time (ΔA340 nm/min). One hundred thousand cells were lysed in 100 μL cell lysis buffer and incubated with the above components. Changes in absorbance over 10 minutes were calculated and normalized to untreated controls. Data are presented as percentage of controls. […]

[2] = test system: MCF7, 231, T47D, BTB-12, ME16C, 468, HCT116 cells; assay: MTT cytotoxic IC50 aligned with MCT1 expression levels (FIG. 14); details: Homo sapiens
Description: The expression levels of MCT1 in different tumor cell lines were determined by Western blot analysis and correlated with cytotoxic IC50 values in response of treatment of the same cells with NEO218 or 3-BP generated by MTT assay.

Chain of GAPDH (P04406 whole entry): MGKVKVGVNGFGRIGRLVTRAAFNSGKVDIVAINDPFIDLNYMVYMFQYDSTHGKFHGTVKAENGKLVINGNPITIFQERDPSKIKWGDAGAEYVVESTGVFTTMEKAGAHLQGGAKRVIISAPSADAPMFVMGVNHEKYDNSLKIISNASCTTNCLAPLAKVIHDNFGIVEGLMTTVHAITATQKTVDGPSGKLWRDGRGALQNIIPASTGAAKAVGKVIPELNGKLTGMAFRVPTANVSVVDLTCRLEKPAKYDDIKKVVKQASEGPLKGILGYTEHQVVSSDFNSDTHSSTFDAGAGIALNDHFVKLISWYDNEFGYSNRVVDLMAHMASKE

Row | SMILES | effect of zVAD pre-treatment on drug-induced cell death [1] | effect of supplemental pyruvate on drug-induced cell death (HCT116 cells) | potency in MDA-MB-231 compared with HCT116 / with 3-BP alone (MDA-MB-231 cells; MTT, LDH and CFA assays) | effect of necrostatin-1 on drug-induced cytotoxic outcome (tumor cells) | pIC50 (GAPDH; HCT116 cells treated 30 minutes, then lysed, read-out: IC50 (GAPDH activity)) | pIC50 ([2]; read-out: cytotoxic IC50) | pIC50 (MDA-MB-231 cells; Homo sapiens, MDA-MB-231, 24 hours, read-out: effective concentration (half-maximal), MTT assay) | pIC50 (GAPDH) | pIC50 ([2]; HCT-116, read-out: cytotoxic IC50)
1 | C=C(C)[C@@H]1CC=C(COC(=O)C(=O)CBr)CC1 [NEO218, 3-bromo-2-oxo-propionic acid 4-isopropenyl-cyclohex-1-enylmethyl ester] | did not affect the cytotoxic IC50; also recorded: did not prevent induction of cell death | no protection at all when pyruvate was added; also recorded: pyruvate had no effect on viability at all | maintained the same high potency | no impact of Nec-1 on drug-induced cytotoxic outcome could be detected | > 4.52 | > 4.46 | – | – | –
2 | O=C(O)C(=O)CBr [3-BP, 3-bromopyruvate] | did not affect the cytotoxic IC50; also recorded: did not prevent induction of cell death | profound protection; also recorded: excess pyruvate was able to completely prevent cell death | – | no impact of Nec-1 on drug-induced cytotoxic outcome could be detected | – | < 3.52 | ~3.66 | > 4.52 | > 4.00
